According to patent US20240000803A1, “ORAL FORMULATION OF BIOLOGICALLY ACTIVE MATERIAL CONJUGATE HAVING BIOTIN MOIETY, FATTY ACID MOIETY, OR COMBINATION THEREOF COUPLED THERETO” (D&D Pharmatech Inc., priority 2020, published 2024):
Where no end group is shown, it is not given here. [ ]: non-standard residue; d: D form. The star is where a group is joined. Biotin = O=C1N[C@H]2[C@H](CS[C@H]2CCCCC(=O)*)N1; F11 = C18-Glu-EG2-EG2-NHS; Aib = CC(C)(N)C(=O)O

System: glycated hemoglobin
Assay: Glycated hemoglobin change after oral administration once daily over 3 weeks (Conjugate 56)
Assay type: in vivo
Conditions: mice, oral once daily 3 weeks, formulation with one bile acid and propyl gallate
Procedure: Physiologically active substances bound to a biotin moiety prepared in accordance with the above example were formulated by dissolving in a vehicle with the compositions of excipients shown in Table 23. These were orally administered to mice once daily over 3 weeks, and changes in glycated hemoglobin were measured.

| Substance | glycated hemoglobin reduction effect |
| --- | --- |
| Conjugate 56: Polypeptide SEQ ID NO 40 (glucagon derivative) with biotin moiety B38 at K12 and fatty acid moiety F11 at K30 (H[Aib]QGTFTSDYSK(Biotin)YLDEQAAKEFVQWLMNTK(F11)) | exhibited a glycated hemoglobin reduction effect |

Same assay, conditions: mice, oral once daily over 3 weeks, 1.343 mg/kg; sCDC 68 mg/kg, PG 34 mg/kg

| Substance | ΔGlycated Hemoglobin |
| --- | --- |
| Conjugate 56: Polypeptide SEQ ID NO 40 (glucagon derivative) with biotin moiety B38 at K12 and fatty acid moiety F11 at K30 (H[Aib]QGTFTSDYSK(Biotin)YLDEQAAKEFVQWLMNTK(F11)) | −0.47 ± 0.34% |

Same assay, conditions: mice, oral once daily over 3 weeks, 4.475 mg/kg; sCDC 68 mg/kg, PG 34 mg/kg

| Substance | ΔGlycated Hemoglobin |
| --- | --- |
| Conjugate 56: Polypeptide SEQ ID NO 40 (glucagon derivative) with biotin moiety B38 at K12 and fatty acid moiety F11 at K30 (H[Aib]QGTFTSDYSK(Biotin)YLDEQAAKEFVQWLMNTK(F11)) | −0.98 ± 0.67% |

System: not listed separately
Assay: Weight reduction and feed intake reduction over 24 hours after oral administration
Assay type: in vivo
Conditions: mice, formulation with sodium chenodeoxycholate and propyl gallate (Table 13)
Procedure: Physiologically active substances bound to a biotin moiety, fatty acid moiety or a combination thereof, prepared in accordance with the above example, were formulated by dissolving in a vehicle (0.02% polysorbate 80 in 10 mM PBS (pH 7.4)) with the compositions of excipients shown in Table 13, then administered orally to mice. Weight reduction and feed intake reduction were measured over 24 hours.

| Substance | Weight loss compared to untreated group (%) |
| --- | --- |
| Conjugate 33: Polypeptide SEQ ID NO 24 (amylin derivative) with biotin moiety B38 at K1 (K(Biotin)CNTATCATQRLANFLVHSSNNFGPILPPTNVGSNTY; ends and bridges not checked) | −4.07 ± 1.30% |
| Conjugate 36: Polypeptide SEQ ID NO 26 (amylin derivative) with biotin moiety B38 at K1 (K(Biotin)CNTATCATQRLADFLRHSSPNFGAIPSSTNVGSRTY; ends and bridges not checked) | −4.53 ± 0.86% |
| Conjugate 39: Polypeptide SEQ ID NO 28 (amylin derivative) with biotin moiety B38 at K1 (K(Biotin)CNTATCATQRLADFLRHSSNNFGAIPSSTNVGSRTY; ends and bridges not checked) | −1.99 ± 0.94% |
| Conjugate 61: Polypeptide SEQ ID NO 24 with biotin moiety B38 at K1 and fatty acid moiety F11 at K1 (KCNTATCATQRLANFLVHSSNNFGPILPPTNVGSNTY; not fully specified (residue 1); ends and bridges not checked; also: biotin B38 and fatty acid F11 both at K1, attachment sites not given here) | −2.96 ± 4.22% |
| Conjugate 62: Polypeptide SEQ ID NO 26 with biotin moiety B38 at K1 and fatty acid moiety F11 at K1 (KCNTATCATQRLADFLRHSSPNFGAIPSSTNVGSRTY; not fully specified (residue 1); ends and bridges not checked; also: biotin B38 and fatty acid F11 both at K1, attachment sites not given here) | −3.32 ± 1.31% |
| Conjugate 63: Polypeptide SEQ ID NO 28 with biotin moiety B38 at K1 and fatty acid moiety F11 at K1 (KCNTATCATQRLADFLRHSSNNFGAIPSSTNVGSRTY; not fully specified (residue 1); ends and bridges not checked; also: biotin B38 and fatty acid F11 both at K1, attachment sites not given here) | −2.41 ± 0.78% |
| Conjugate 64: Polypeptide SEQ ID NO 30 with biotin moiety B38 at K35 and fatty acid moiety F11 at K1 (RCNTATCATQRLADFLRHSSNNFGAIPSSTNVGSK(Biotin)TY; ends and bridges not checked; also: fatty acid F11 at K1, but residue 1 is R) | −3.38 ± 1.26% |
| Polypeptide SEQ ID NO: 24: amylin derivative KCNTATCATQRLANFLVHSSNNFGPILPPTNVGSNTY (Amylin derivative) [reference compound] | −2.63 ± 1.06% |
| Polypeptide SEQ ID NO: 26: amylin derivative KCNTATCATQRLADFLRHSSPNFGAIPSSTNVGSRTY (Amylin derivative) [reference compound] | −3.13 ± 1.05% |
| Polypeptide SEQ ID NO: 28: amylin derivative KCNTATCATQRLADFLRHSSNNFGAIPSSTNVGSRTY (Amylin derivative) [reference compound] | −1.11 ± 0.84% |
| Polypeptide SEQ ID NO: 30: amylin derivative RCNTATCATQRLADFLRHSSNNFGAIPSSTNVGSKTY (Amylin derivative) [reference compound] | −1.17 ± 0.76% |
